Test results as given in patent publication US20100286217A1, “STABLE, LOW VOC, LOW VISCOUS BIOCIDAL FORMULATIONS AND METHOD OF MAKING SUCH FORMULATIONS” (priority 2008, published 2010).

Assay: Dissolution of IPBC in MPEG-350/DMSO versus PEG-400/DMSO
Assay type: physicochemical
Conditions: 60% IPBC solution
Method: In a 100 ml beaker is added about 25 ml of solvent, and the weight is recorded to four significant digits. The beaker is heated to 40-60° C. (depending on the active being tested) in a water bath. The solute of interest is added stepwise (all aliquot weights are recorded to four significant digits) until saturation is achieved. Once the solid remains undissolved, back-titration with known weights of solvent are performed until the solution is clear.
This example compares the viscosity and VOC content of 55 and 60% IPBC formulations in MPEG-350/DMSO and PEG-400/DMSO. For the 55% IPBC solutions, 10% DMSO is used. For the 60% solutions, only 10% DMSO is required for complete dissolution of the IPBC when MPEG is used, however, 15% DMSO is required for complete dissolution of the IPBC when PEG 400 is used. Viscosity and VOC data are in Table 6.

CCCCNC(=O)OCC#CI [IPBC, 3-iodo-2-propynyl butyl carbamate]
DMSO required for complete dissolution of the IPBC (MPEG used): 10%
DMSO required for complete dissolution of the IPBC (PEG 400 used): 15%
